Results from patent US9145398B2, “Methods of treating CXCR4-expressing cancers” (University of Louisville Research Foundation, Inc., priority 2010, dated 2015).
pIC50: −log10 of the molar value.

Legend:
hCXCR4-GFP [1] = assay: Intracellular calcium mobilization assay, hCXCR4-GFP expressing 300.19 cells, CXCL12; type: cell-based, human; details: 50 μM test compound
Method: (§1) Intracellular Calcium Mobilization Assay Method: The intracellular calcium mobilization assay used 300.19 cells which stably expressed hCXCR4-GFP, as described previously in Pello et al. (2008). Cells were loaded with INDO-I and then pretreated with the 50 μM of the test compound for 60 seconds prior to stimulation of intracellular calcium mobilization with an optimized concentration of CXCL12. […] The value Δ florescence is the difference between (a) the fluorescence ratio from cells before exposure to CXCL12 at its optimized concentration and (b) the fluorescence ratio from cells following stimulation with the optimized concentration of CXCL12. Decreases in Δ florescence correspond to decreases in intracellular calcium mobilization, and therefore, decreased signaling. As CXCL12 concentration was optimized for each test compound, results are presented as normalized Δ florescence which is Δ fluorescence divided by the fluorescence ratio of optimized CXCL12-only stimulation. In some instances, the IC50 concentration (concentration at which intracellular calcium mobilization is reduced to 50% of the Δ fluorescence of the CXCL12 plus DMSO control) of the test compounds was determined. All assays were performed a minimum of four times; error bars represent the standard deviation of the mean.

BLT1 [2] = target: T1, BLT1 (Homo sapiens, UniProt Q15722); assay: Intracellular calcium mobilization assay, cells expressing BLT1, LTB4; type: cell-based; details: LTB4-mediated
Method: as §1
At 50 μM test compound concentrations in BLT1-expressing cells, I-44 (0.040) and I-46 (0.017) inhibited intracellular calcium mobilization.

300.19 cells = assay: Cytotoxicity assay, propidium iodide based flow cytometry; type: cell-based; details: for cytotoxicity, percentage of cells staining positive for PI: 50 μM test compound; for cytotoxicity in dose response below 50 μM: 10 μM, 5 μM and 1 μM tested
Method: Cytotoxicity Assay Method: To determine the potential for test compound cytotoxicity to influence cell intracellular calcium mobilization and chemotaxis, cell cytotoxicity was assessed using propidium iodide (PI) based flow cytometry. Propidium iodine is impermeable to intact cell membranes and thus its lack of intercalation into DNA (which increases PI fluorescence) is a positive indicator of cell viability. Cytotoxicity values are presented as percentage of cells staining positive for PI. Lower values of fluorescence indicate less cytotoxicity. All assays were performed a minimum of four times; error bars represent the standard deviation of the mean.

HS27 cells = assay: MTT cell proliferation assay, HS27; type: cell-based, human; details: 4 days, normal fibroblast cell line
Method: (§2) To determine the potential for compounds to impact the proliferation of cells, cell growth was assessed capacity using the 3-(4,5-dimethylthiazol-2-yl)-2,5-diphenyltetrazolium bromide (MTT) assay. The effect of these compounds was determined for four cell lines: HS27, a “normal” fibroblast cell line; MCF7, an estrogen-dependant non-metastatic breast cancer cell line; MDA-MB-231, an estrogen-independent metastatic breast cancer cell line; and A549, a lung cancer cell line. Cells were left untreated, treated with 12.5 mM DMSO, or treated with varying concentrations of four compounds, (I-9, I-25, I-36, and I-37), then incubated for 4 days, before analysis. Absorbance at 490 nm represents proliferating cells. For samples using compounds, these values are normalized to untreated samples.

MCF7 cells = assay: MTT cell proliferation assay, MCF7; type: cell-based, human; details: 4 days; for pIC50: Homo sapiens, MCF7, 96 h
Method: as §2

MDA-MB-231 cells = assay: MTT cell proliferation assay, MDA-MB-231; type: cell-based, human; details: 4 days; for pIC50: Homo sapiens, MDA-MB-231, 96 h
Method: as §2

A549 cells = assay: MTT cell proliferation assay, A549; type: cell-based, human; details: 4 days; for pIC50: Homo sapiens, A549, 96 h
Method: as §2

hCXCR4-GFP [3] = target: T2, hCXCR4-GFP (Homo sapiens, UniProt P61073); assay: Intracellular calcium mobilization assay, hCXCR4-GFP expressing 300.19 cells, CXCL12; type: cell-based; parameters: IC50 of intracellular calcium mobilization, CXCR4; other: CXCL12-mediated; other: 50 μM test compound; normalized Δ fluorescence (CXCR4, intracellular calcium mobilization); other: 50 μM test compound, 60 seconds pretreatm; details: CXCL12-mediated; read-out: IC50 of intracellular calcium mobilization, CXCR4
Method: as §1

hCXCR4-GFP [4] = target: T2, hCXCR4-GFP; assay: Chemotaxis assay, hCXCR4-GFP expressing 300.19 cells, CXCL12; type: cell-based; details: for chemotaxis index (CXCR4-mediated): 50 μM test compound plus optimized CXCL12, normalized to CXCL12 plus DMSO control
Method: (§3) Cells were suspended in chemotaxis buffer (RPMI 1640, 1% fetal bovine serum, 1 mM HEPES) at a concentration of 1×10^7 cells per ml. Cell chemotaxis was determined by examining the migration of the 300.19 cells in response to administration of 50 μM test compound plus an optimized concentration of CXCL12 using a chemotaxis assay that was previously described in Basu et al. (Basu et al., Critical role for polar residues in coupling leukotriene B4 binding to signal transduction in BLT1, J. Biol. Chem. (2007) Vol. 282, pp. 10005-17). 100 μL of 300.19 cells from the above cell suspension were placed in the upper chamber of a Transwell support (Corning Costar, Cambridge, Mass.) and were separated by a 5 micron filter from a bottom chamber containing 50 μM test compound plus the optimized concentration of CXCL12 in a final bottom chamber volume of 600 μl. After 3 h of incubation at 37° C. in 5% CO2, the upper chamber was removed and cells in the lower chamber were counted in a Bürker chamber. Cell counts for all samples were normalized to a CXCL12 plus DMSO control and results are reported using this normalized measure, referred to herein as the chemotaxis index. In some instances, the IC50 concentration (i.e., the concentration at which the chemotaxis index is reduced to 50% of the chemotaxis index of the CXCL12 plus DMSO control) of the test compounds was determined. All assays were performed a minimum of four times; error bars represent the standard deviation of the mean.

hCXCR4-GFP [5] = assay: as above; type: cell-based, human; details: from chemotaxis indices at 50 μM
Method: as §3

BLT1 [6] = target: T1, BLT1; assay: Chemotaxis assay, cells expressing BLT1, LTB4; type: cell-based; details: 50 μM test compound, LTB4-induced
Method: as §3
To examine specificity of some of the compounds for CXCR4, their activity was tested against a non-family member class A G protein-coupled receptor, BLT1. […] I-38 and I-43 inhibited BLT1-mediated chemotaxis (0.23) and (0.045) to about the same extent as CXCR4-mediated chemotaxis (0.21) and (0.064), respectively.

[7] = Test for toxicity in mice; type: in vivo; details: i.p. 5 mg/kg, then 20 or 40 mg/kg two days later; observed over 3 weeks
Method: Test for Toxicity: Mice were treated by intra-peritoneal injections of three of compounds I-28, I-36, and I-38 at the first dose of 5 mg/kg of body weight, followed by a second injection of either 20 mg/kg of body weight or 40 mg/kg of body weight two days later.

TC-1 tumor cells = type: in vivo; details: 5 mg/kg i.p. every day for 21 days; versus PBS or Vehicle controls
From the text: Development of Animal Model for CXCR4 Dependent Cancer Metastasis in Lungs: To establish a CXCR4 dependent lung tumor metastasis model, we first screened several cancer cell lines that are known to metastasize to lungs in mice models to determine which cancer cell lines endogenously express CXCR4 receptor. The mice cell lines screened were Lewis lung carcinoma, B16F10 melanoma, and TC-1 cervical carcinoma. Mice cell lines were screened using flow cytometry-based surface receptor staining using a fluorochrome labeled antibody to mouse CXCR4 receptor. […] The TC-1 cell line was generated by transfection of murine lung squamous epithelial cells by Human pappillomavirus (HPV) oncogenes E6, E7, and activated Ras.
5 mg/kg body weight of AMD3100, I-28, I-36, or I-38 were also injected at the same dose intra-peritoneal (i.p.) every day for 21 days starting from the day before the tumor cell injection. Mice were sacrificed and lungs were perfused and collected on day 21 post tumor challenge. Lungs were stored in formalin for 16 hrs and then transferred into 70% ethanol until the lung lobes became lucid. All five lung lobes were separated. Tumors were counted using a magnifying glass or a microscope. Tumor sizes were measured using a digital caliper. The total number of tumors counted in all five lung lobes of an individual mouse is reported as the tumor incidence. Mean tumor sizes were added together to calculate cumulative tumor size, which is reported as the tumor burden for each mouse.

T1 sequence (Q15722 whole entry, species assumed): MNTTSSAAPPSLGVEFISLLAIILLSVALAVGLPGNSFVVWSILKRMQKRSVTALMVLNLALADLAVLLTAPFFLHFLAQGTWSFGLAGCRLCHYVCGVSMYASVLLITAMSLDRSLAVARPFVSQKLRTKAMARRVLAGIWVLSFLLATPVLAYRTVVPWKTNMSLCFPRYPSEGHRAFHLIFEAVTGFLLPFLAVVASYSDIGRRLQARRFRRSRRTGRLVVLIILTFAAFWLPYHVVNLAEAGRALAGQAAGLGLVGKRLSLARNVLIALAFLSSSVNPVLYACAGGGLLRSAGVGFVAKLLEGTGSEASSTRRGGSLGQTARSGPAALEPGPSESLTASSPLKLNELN
T2 sequence (P61073 whole entry): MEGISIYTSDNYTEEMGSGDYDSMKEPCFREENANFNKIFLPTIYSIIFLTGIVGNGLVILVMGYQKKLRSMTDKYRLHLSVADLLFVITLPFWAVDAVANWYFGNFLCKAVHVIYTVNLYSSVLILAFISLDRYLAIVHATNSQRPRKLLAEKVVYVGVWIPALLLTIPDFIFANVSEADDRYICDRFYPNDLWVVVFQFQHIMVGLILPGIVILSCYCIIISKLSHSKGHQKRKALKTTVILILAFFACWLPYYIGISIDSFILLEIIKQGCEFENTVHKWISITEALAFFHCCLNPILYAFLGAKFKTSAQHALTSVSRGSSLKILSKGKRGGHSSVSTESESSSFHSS

pIC50 (BLT1 [2]) | pIC50 (MDA-MB-231 cells) | pIC50 (A549 cells) | pIC50 (hCXCR4-GFP [3]) | Compound | difference between CXCR4- and BLT1-mediated intracellular calcium mobilization (hCXCR4-GFP [1]) | cytotoxicity, percentage of cells staining positive for PI (300.19 cells) | cytotoxicity in dose response below 50 μM (300.19 cells) | proliferation inhibition, HS27 (in words) (HS27 cells) | pIC50 (MCF7 cells) | chemotaxis index (CXCR4-mediated) (hCXCR4-GFP [4]) | fold greater inhibition of CXCR4-mediated than BLT1-mediated chemotaxis (hCXCR4-GFP [5]) | chemotaxis index (BLT1-mediated) (BLT1 [6]) | proliferation inhibition, MCF7 (in words) (MCF7 cells) | apparent toxicity (loss of body weight, signs of physiological distress) [7] | TC-1 metastatic tumor incidence and burden in lungs (TC-1 tumor cells) | pIC50 (hCXCR4-GFP [4]; hCXCR4-GFP 300.19 cells, CXCL12) | proliferation inhibition, MDA-MB-231 (in words) (MDA-MB-231 cells) | proliferation inhibition, A549 (in words) (A549 cells)
4.70 | 5.30 | 5.12 | 6.00 | COc1cc(NCCCC(C)Nc2ccnc3cc4ccccc4cc23)c2ncccc2c1 (centres unmarked) [Compound I-9, N-(5-(6-methoxyquinolin-8-ylamino)pentan-2-yl)benzo[g]quinolin-4-amine] | no significant difference | 81.2% | no cytotoxicity beyond the initial 50 μM screening concentration | consistently inhibited cell proliferation even at concentrations nearing 1 μM | 5.30 |  |  |  |  |  |  |  |  | 
4.40 | 5.00 | 5.00 | 6.00 | CN(C)c1cccc(Nc2nc3ccccc3nc2NS(=O)(=O)c2ccc([N+](=O)[O-])cc2)c1 [Compound I-25, N-[3-(3-dimethylaminophenyl)aminoquinoxalin-2-yl]-4-nitro-benzenesulfonamide] |  | 23.4% | no cytotoxicity beyond the initial 50 μM screening concentration | marginal proliferation inhibition at higher concentrations |  | 0.030 | 12 fold | 0.38 | only marginally inhibited cell proliferation of MCF7 cells at high concentrations |  |  |  |  | 
 |  |  |  | Cc1ccc(NCC(=O)Nc2ncc(Cc3cccc(C(F)(F)F)c3)s2)cc1C [Compound I-37, 2-(3,4-dimethylphenyl)amino-N-[5-[[3-(trifluoromethyl)phenyl]methyl]thiazol-2-yl]-acetamide] |  |  |  | did not inhibit proliferation for any tested cell line |  |  |  |  | did not inhibit proliferation for any tested cell line |  |  |  | did not inhibit proliferation for any tested cell line | did not inhibit proliferation for any tested cell line

Compound | pIC50 (BLT1 [2]) | pIC50 (MDA-MB-231 cells) | pIC50 (A549 cells) | pIC50 (hCXCR4-GFP [3]) | difference between CXCR4- and BLT1-mediated intracellular calcium mobilization (hCXCR4-GFP [1]) | cytotoxicity, percentage of cells staining positive for PI (300.19 cells) | cytotoxicity in dose response below 50 μM (300.19 cells) | proliferation inhibition, HS27 (in words) (HS27 cells) | pIC50 (MCF7 cells) | chemotaxis index (CXCR4-mediated) (hCXCR4-GFP [4]) | fold greater inhibition of CXCR4-mediated than BLT1-mediated chemotaxis (hCXCR4-GFP [5]) | chemotaxis index (BLT1-mediated) (BLT1 [6]) | proliferation inhibition, MCF7 (in words) (MCF7 cells) | apparent toxicity (loss of body weight, signs of physiological distress) [7] | TC-1 metastatic tumor incidence and burden in lungs (TC-1 tumor cells) | pIC50 (hCXCR4-GFP [4]; hCXCR4-GFP 300.19 cells, CXCL12) | proliferation inhibition, MDA-MB-231 (in words) (MDA-MB-231 cells) | proliferation inhibition, A549 (in words) (A549 cells)
Cc1ccc(N2C(=O)/C(=C/Nc3ccc(S(=O)(=O)Nc4ccc(O)cc4)cc3)c3ccccc3C2=O)cc1C [Compound I-28, 4-[[2-(3,4-dimethylphenyl)-1,3-dioxo-4-isoquinolylidene]methylamino]-N-(4-hydroxyphenyl)-benzenesulfonamide] | 4.65 |  |  | 5.00 | no significant difference |  |  |  |  |  |  |  |  | did not induce any apparent toxicity | reduced mice TC-1 metastatic tumor incidence and burden in lungs |  |  | 
CCn1c2ccccc2c2ccc(Nc3nc4ccccc4nc3NS(=O)(=O)c3ccc(C)cc3)cc21 [Compound I-36, N-[3-(9-ethylcarbazol-2-yl)aminoquinoxalin-2-yl]-4-methyl-benzenesulfonamide] |  | 4.52 | 4.65 |  |  | 21.0% | no cytotoxicity beyond the initial 50 μM screening concentration | marginal proliferation inhibition at higher concentrations | 4.90 | 0.12 | 3.5 fold | 0.44 |  | did not induce any apparent toxicity | reduced mice TC-1 metastatic tumor incidence and burden in lungs | 6.00 |  | 
